Results published in patent US20220024921A1, “1,3,4-OXADIAZOLONE COMPOUND AND PHARMACEUTICAL” (NIPPON SHINYAKU CO., LTD., priority 2018, published 2022).
pIC50: −log10 of the molar value. Where a name gives a salt, the structure may show the parent alone.

Columns and labels:
[1] = target: T1, PIM1 serine/threonine kinase (Homo sapiens, UniProt P11309); assay: PIM1 serine/threonine kinase inhibitory effect; format: biochemical; settings: PIM1 serine/threonine kinase activity; ATP 40 μM; 30° C., 30 minutes
T1 construct: purchased Carna Bioscience, Inc
Method in brief: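 Recombinant PIM1 (0.15 μg/ml final) with 0.5 μM biotinylated substrate and 40 μM ATP in pH 7.0 HEPES/MgCl2 buffer, 30 min at 30° C. Compound range was 0.01–10000 nM final, n=2. HTRF detection with streptavidin-XL665 and anti-phospho antibody-cryptate, 1 h; IC50 from non-linear regression of the 665/620 ratio.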

[2] = target: PIM1 transgenic cells (Ba/F3) (Homo sapiens, UniProt P11309); assay: Proliferation inhibitory effect on PIM1 transgenic cells; format: cell-based, mouse; settings: proliferation inhibition, 72 hours, Cell Counting Kit-8, read-out: PIM1 IC50
Method in brief: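 Mouse Ba/F3 pro-B cells were retrovirally transduced with human PIM1 so that their proliferation depends on PIM1. Cells were treated with compound at 1–10000 nM final for 72 h, then read by CCK-8 (OD450−OD650). Inhibition was set against DMSO (0%) and no-cell blank (100%), and IC50 was obtained by two-parameter logistic regression.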

T1 sequence (P11309 whole entry): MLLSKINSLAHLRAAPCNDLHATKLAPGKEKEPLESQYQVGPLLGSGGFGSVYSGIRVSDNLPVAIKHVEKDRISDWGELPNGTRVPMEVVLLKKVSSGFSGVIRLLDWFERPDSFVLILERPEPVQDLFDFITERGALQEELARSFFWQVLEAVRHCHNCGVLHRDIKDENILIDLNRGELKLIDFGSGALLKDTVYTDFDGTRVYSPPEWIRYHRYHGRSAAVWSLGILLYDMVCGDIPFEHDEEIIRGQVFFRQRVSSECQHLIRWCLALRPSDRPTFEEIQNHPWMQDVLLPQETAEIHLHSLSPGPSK
Sequence of PIM1 transgenic cells (Ba/F3) (P11309 whole entry, stated change not applied): as the sequence (P11309 whole entry) above

SMILES	pIC50 [1]	GI50 [2] [nM]
C[C@H](Nc1cc(-c2n[nH]c(=O)o2)ccc1C(F)(F)F)[C@H]1C[C@@H](N)C1(C)C [Example 153, 5-[3-({(1S)-1-[(1S,3R)-3-amino-2,2-dimethylcyclobutyl]ethyl}amino)-4-(trifluoromethyl)phenyl]-1,3,4-oxadiazol-2(3H)-one hydrochloride]	8.51	40
CC(Oc1cc(-c2n[nH]c(=O)o2)ccc1Br)C1CCNCC1 (stereo not shown) [Example 236]	8.06	180
C[C@H](Nc1cc(-c2n[nH]c(=O)o2)ccc1C(F)(F)F)C12CCC(N)(CC1)C2 [Example 187, 5-[3-{[(1S)-1-(4-aminobicyclo[2.2.1]heptan-1-yl)ethyl]amino}-4-(trifluoromethyl)phenyl]-1,3,4-oxadiazol-2(3H)-one hydrochloride]	8.06	110
C[C@H](Nc1cc(-c2n[nH]c(=O)o2)ccc1Cl)[C@@H]1C[C@H](N)C1(C)C [Example 158, 5-[3-({(1S)-1-[(1R,3S)-3-amino-2,2-dimethylcyclobutyl]ethyl}amino)-4-chlorophenyl]-1,3,4-oxadiazol-2(3H)-one hydrochloride]	8.48	37
C[C@H](Nc1cc(-c2n[nH]c(=O)o2)ccc1C(F)(F)F)[C@H]1CC[C@@H](N)C1 [Example 199, 5-[3-({(1S)-1-[(1S,3R)-3-aminocyclopentyl]ethyl}amino)-4-(trifluoromethyl)phenyl]-1,3,4-oxadiazol-2(3H)-one hydrochloride]	8.41	110
C[C@H](Nc1cc(-c2n[nH]c(=O)o2)cc(F)c1C(F)(F)F)[C@H]1C[C@@H](N)C1(C)C [Example 164, 5-[3-({(1S)-1-[(1S,3R)-3-amino-2,2-dimethylcyclobutyl]ethyl}amino)-5-fluoro-4-(trifluoromethyl)phenyl]-1,3,4-oxadiazol-2(3H)-one hydrochloride]	8.77	25
CC1(C)[C@H](CNc2cc(-c3n[nH]c(=O)o3)ccc2C(F)(F)F)C[C@@H]1N [Example 166, 5-[3-({[(1R,3S)-3-amino-2,2-dimethylcyclobutyl]methyl}amino)-4-(trifluoromethyl)phenyl]-1,3,4-oxadiazol-2(3H)-one hydrochloride]	8.64	26
CCN[C@H]1C[C@@H]([C@H](C)Nc2cc(-c3n[nH]c(=O)o3)ccc2C(F)(F)F)C1 [Example 195, 5-[3-({(1S)-1-[(1s,3R)-3-(ethylamino)cyclobutyl]ethyl}amino)-4-(trifluoromethyl)phenyl]-1,3,4-oxadiazol-2(3H)-one hydrochloride]	8.09	140
O=c1[nH]nc(-c2cc(F)c(Cl)c(NCC3(F)CCNCC3)c2)o1 [Example 123, 5-(4-chloro-3-fluoro-5-{[(4-fluoropiperidin-4-yl)methyl]amino}phenyl)-1,3,4-oxadiazol-2(3H)-one hydrochloride]	8.09	340
C[C@H](Nc1cc(-c2n[nH]c(=O)o2)cc(Cl)c1Cl)C1CCNCC1 [Example 79, 5-(3,4-dichloro-5-{[(1S)-1-(piperidin-4-yl)ethyl]amino}phenyl)-1,3,4-oxadiazol-2(3H)-one dihydrochloride]	9.10	53
CN[C@H]1CC[C@H]([C@H](C)Nc2cc(-c3n[nH]c(=O)o3)cc(F)c2C(F)(F)F)CC1 [Example 190, 5-[3-fluoro-5-({(1S)-1-[(1r,4S)-4-(methylamino)cyclohexyl]ethyl}amino)-4-(trifluoromethyl)phenyl]-1,3,4-oxadiazol-2(3H)-one hydrochloride]	8.72	41
C[C@@H](CN)Oc1ccc(-c2cc(-c3n[nH]c(=O)o3)ccc2C(F)(F)F)cc1 [Example 24, 5-[4′-{[(2S)-1-aminopropan-2-yl]oxy}-6-(trifluoromethyl)[1,1′-biphenyl]-3-yl]-1,3,4-oxadiazol-2(3H)-one hydrochloride]	7.41	870
O=c1[nH]nc(-c2ccc(Br)c(OCC3CCNCC3)c2)o1 [Example 235, 5-{4-bromo-3-[(piperidin-4-yl)methoxy]phenyl}-1,3,4-oxadiazol-2(3H)-one]	8.11	650
C[C@H](Nc1cc(-c2n[nH]c(=O)o2)ccc1C(F)(F)F)[C@H]1CC[C@H](NCC(F)(F)F)CC1 [Example 197, 5-[3-{[(1S)-1-{(1r,4S)-4-[(2,2,2-trifluoroethyl)amino]cyclohexyl}ethyl]amino}-4-(trifluoromethyl)phenyl]-1,3,4-oxadiazol-2(3H)-one hydrochloride]	6.85	1900
CC(C)c1c(F)cc(-c2n[nH]c(=O)o2)cc1N[C@@H](C)[C@H]1CC[C@H](N)CC1 [Example 233, 5-[3-({(1S)-1-[(1r,4S)-4-aminocyclohexyl]ethyl}amino)-5-fluoro-4-(propan-2-yl)phenyl]-1,3,4-oxadiazol-2(3H)-one hydrochloride]	8.26	44
N[C@H]1CC[C@H](CN2CCCc3ccc(-c4n[nH]c(=O)o4)cc32)CC1 [Example 244, 5-(1-{[(1r,4r)-4-aminocyclohexyl]methyl}-1,2,3,4-tetrahydroquinolin-7-yl)-1,3,4-oxadiazol-2(3H)-one]	7.96	140
COc1c(Cl)cc(-c2n[nH]c(=O)o2)cc1N[C@@H](C)C1CCNCC1 [Example 104, 5-(3-chloro-4-methoxy-5-{[(1S)-1-(piperidin-4-yl)ethyl]amino}phenyl)-1,3,4-oxadiazol-2(3H)-one hydrochloride]	8.40	110
C[C@H](Nc1c(F)c(-c2n[nH]c(=O)o2)cc(F)c1Cl)C1CCNCC1 [Example 88, 5-(4-chloro-2,5-difluoro-3-{[(1S)-1-(piperidin-4-yl)ethyl]amino}phenyl)-1,3,4-oxadiazol-2(3H)-one hydrochloride]	8.62	110
C[C@H](Nc1cc(-c2n[nH]c(=O)o2)cc(F)c1C1CC1)[C@H]1CC[C@H](N)CC1 [Example 230, 5-[3-({(1S)-1-[(1r,4S)-4-aminocyclohexyl]ethyl}amino)-4-cyclopropyl-5-fluorophenyl]-1,3,4-oxadiazol-2(3H)-one]	8.48	22
NC1CC2(C1)CC(Nc1cc(-c3n[nH]c(=O)o3)ccc1C(F)(F)F)C2 (stereo not shown) [Example 43, 5-{3-[(6-aminospiro[3.3]heptan-2-yl)amino]-4-(trifluoromethyl)phenyl}-1,3,4-oxadiazol-2(3H)-one hydrochloride]	8.04	190
C[C@H](Nc1cc(-c2n[nH]c(=O)o2)cc(F)c1Cl)C1CCNCC1 [Example 76, 5-(4-chloro-3-fluoro-5-{[(1S)-1-(piperidin-4-yl)ethyl]amino}phenyl)-1,3,4-oxadiazol-2(3H)-one hydrochloride]	8.72	31
Cc1c(F)cc(-c2n[nH]c(=O)o2)cc1N[C@@H](C)C1CCNCC1 [Example 99, 5-(3-fluoro-4-methyl-5-{[(1S)-1-(piperidin-4-yl)ethyl]amino}phenyl)-1,3,4-oxadiazol-2(3H)-one dihydrochloride]	8.41	97
CCOc1c(F)cc(-c2n[nH]c(=O)o2)cc1N[C@@H](C)[C@H]1CC[C@H](N)CC1 [Example 173, 5-[3-({(1S)-1-[(1r,4S)-4-aminocyclohexyl]ethyl}amino)-4-ethoxy-5-fluorophenyl]-1,3,4-oxadiazol-2(3H)-one dihydrochloride]	8.00	250
C[C@H](Nc1cc(Cl)cc(-c2n[nH]c(=O)o2)c1)C1CCNCC1 [Example 105, 5-(3-chloro-5-{[(1S)-1-(piperidin-4-yl)ethyl]amino}phenyl)-1,3,4-oxadiazol-2(3H)-one dihydrochloride]	7.92	550
CCN[C@H]1CC[C@H]([C@H](C)Nc2cc(-c3n[nH]c(=O)o3)ccc2C(F)(F)F)CC1 [Example 193, 5-[3-({(1S)-1-[(1r,4S)-4-(ethylamino)cyclohexyl]ethyl}amino)-4-(trifluoromethyl)phenyl]-1,3,4-oxadiazol-2(3H)-one hydrochloride]	8.21	160
O=c1[nH]nc(-c2ccc(Cl)c(OC[C@H]3C[C@@H](N4CCNCC4)C3)c2)o1 [Example 242, 5-(4-chloro-3-{[(1s,3s)-3-(piperazin-1-yl)cyclobutyl]methoxy}phenyl)-1,3,4-oxadiazol-2(3H)-one]	8.00	2600
N[C@H]1CC[C@@H](COc2cc(-c3n[nH]c(=O)o3)ccc2Cl)CC1 [Example 243, 5-(3-{[(1s,4s)-4-aminocyclohexyl]methoxy}-4-chlorophenyl)-1,3,4-oxadiazol-2(3H)-one]	8.39	150
O=c1[nH]nc(-c2cc(F)c(C(F)(F)F)c(N[C@@H](C(F)F)C3(F)CCNCC3)c2)o1 [Example 163, 5-[3-{[(1R)-2,2-difluoro-1-(4-fluoropiperidin-4-yl)ethyl]amino}-5-fluoro-4-(trifluoromethyl)phenyl]-1,3,4-oxadiazol-2(3H)-one hydrochloride]	8.70	24
CN[C@H]1C[C@@H]([C@H](C)Nc2cc(-c3n[nH]c(=O)o3)cc(F)c2C(F)(F)F)C1 [Example 203, 5-[3-fluoro-5-({(1S)-1-[(1s,3R)-3-(methylamino)cyclobutyl]ethyl}amino)-4-(trifluoromethyl)phenyl]-1,3,4-oxadiazol-2(3H)-one hydrochloride]	8.44	54
